Data as given in patent US11419913B2, “Pharmaceutical compositions for inhibiting inflammatory cytokines” (S.I.S. SHULOV INNOVATIVE SCIENCE LTD., priority 2018, dated 2022).
Converted amounts (≈) assume the structure as drawn. Where a name gives a salt, the structure may show the parent alone. Where a SMILES comes first, the peptide text is derived from it. [ ]: non-standard residue; d: D form. The star is where a group is joined. pGlu = O=C1CC[C@@H](C(=O)O)N1; Octanoyl = CCCCCCCC(=O)*

Tests used:
[1] = test system: oxazolone-induced atopic dermatitis (AD) mouse models; assay: Oxazolone-induced atopic dermatitis mouse model, clinical lesions; format: in vivo
Method: The effect of topical administration of ZEP3 (SEQ ID NO: 1), and its sodium salt form (ZEP3Na), and ZEP4 (SEQ ID NO: 2) was evaluated in oxazolone-induced atopic dermatitis (AD) mouse models. This model is widely used and well described in literature (Avci et al. 2013 Expert Opin Drug Discov. 8, 331-355; Petersen T. K. 2006, Basic Clin. Pharmacol. Toxicol. 99, 104-115) as an accepted animal model for evaluating drugs for AD therapy in humans.

[2] = Oxazolone-induced atopic dermatitis mouse model, tolerability and bodyweights
Method: Method: Animals were sensitized by topical administration of oxazolone 2% in ethanol on the back at Day 0 after shaving and depilation of the animals (sensitization phase). Then a challenge was performed one week later by topical administration of oxazolone 1% in ethanol on the back and on right ear every 2 days at 10 occasions namely for total 3 weeks. The tested compounds were applied during the challenge phase every 2 days via the topical route as ready to use cream formulations. The surface of application was the same as for challenge (back+ear). 100 μL were deposited on the back and the back was smoothly massaged. Then, remaining formulation on finger glove was deposited on the internal face of the ear. Every other day, back skin and ears thickness were measured using caliper; and the following clinical scores were recorded from back skin: erythema and scaling. Animals were also weighed every other day (approximate bodyweights of a mouse at startup is about 20 g).
The formulations used for topical administration of the tested compound were: ZEP3 1% cream having pH 7.1 and comprising: Propylene glycol, Polysorbate 80, Edetate Disodium, Silicon dioxide (syloid), Methylparaben, White petrolatum, Isopropyl Myristate, Cetyl Alcohol and Glyceryl Monostearate. ZEP3Na 1% cream having pH 8.0 and comprising: Propylene glycol, Polysorbate 80, Edetate Disodium, Silicon dioxide (syloid), Methylparaben, White petrolatum, Isopropyl Myristate, Cetyl Alcohol and Glyceryl Monostearate. ZEP4 1% cream having pH 4.5 and comprising: Propylene glycol, Glycerin, Polysorbate 80, EDTA Disodium, Xanthan Gum, Silicon dioxide (syloid), Methylparaben, White petrolatum, Isopropyl Myristate, Cetyl Alcohol, Stearyl Alcohol, and Glyceryl Monostearate (kolliwax).

CMC type arthritis = assay: Treatment of CMC arthritis of the big toe in a subject; format: in vivo, human; conditions: 0.5% cream applied on the swollen area 5 times a day
Text: Their toe was swollen, red, and so painful that it prevented them from walking. ZEP3 sodium salt at 0.5% cream was applied on the swollen area 5 times a day.

physchem = conditions: water
TNF alpha = TNF alpha secretion in LPS treated human keratinocytes (ELISA); format: cell-based; conditions: for TNFα: ZEP3Na without DMSO; for Fold Change: refers to TNF-α concentration in sample #2; for % Inhibition: vs corresponding control group without peptide
Method: Methods: SCCE020 cells (EpiGRO™ Human Epidermal Keratinocytes) were grown in complete growth medium (EpiGRO™ Human Keratinocytes Complete Medium; Millipore Cat. #SCMK001) for 4 passages. At passage 5, cells were seeded (3*10^5 cells/well) in triplicates in a volume of 1 ml complete growth medium per well. Additional 3 control wells contained only medium without cells. Upon adherence, cell medium was replaced by basal medium containing L-Glutamine without supplements (starvation medium) and cells were starved overnight. The next day, 24 hours after seeding, the cells were treated with ZEP3 or ZEP3Na or appropriate diluent (PBS or DMSO). After 4 hours of incubation, LPS (from E. Coli 055: B5; Sigma Cat. #L6529-1MG) was added to the wells in final concentration of 20 or 30 μg/ml.
Cells were incubated for 24 hours in tissue culture incubator. After collecting cell supernatants from all wells, cells from treatment groups: 1, 2, 3, 8, 9, 10, 13, 14 (without DMSO groups) were pelleted and stored at −80° C. for further analyses. The cells were collected from as following: upon supernatants collection, the wells were rinsed with trypsin, then incubated with trypsin until they detached from the plate surface, centrifuged, washed with PBS and stored as a cell pellet. TNF-α concentration in the supernatants was measured by ELISA (Quantikine HS ELISA; R&D Systems Cat. #HSTA00D), in 5 replicates.
TNF alpha concentration in the samples was calculated according to the standard curve trend line equation: =0.063x+0.1718. Percent inhibition of TNF alpha production was calculated in each treatment group in comparison to the corresponding control group (same conditions, without peptide).

[3] = peptide 0.02 mg/ml, LPS 20 μg/ml
[4] = peptide 0.2 mg/ml, LPS 20 μg/ml
[5] = peptide 0.2 mg/ml, LPS 30 μg/ml
[6] = peptide 0.4 mg/ml, LPS 20 μg/ml

C[C@H]1C[C@H]2[C@@H]3CCC4=CC(=O)C=C[C@]4(C)[C@@]3(F)[C@@H](O)C[C@]2(C)[C@@]1(O)C(=O)CO [Betamethasone, reference compound]
Back skin thickness decrease ([1]; day 28, topical, 2.5 mg/kg): 40% | bodyweight loss ([2]; topical, 2.5 mg/kg): 8-10%

CCCCCCCC(=O)NCCCC[C@H](NC(=O)[C@H](Cc1c[nH]c2ccccc12)NC(=O)[C@H](CC(N)=O)NC(=O)[C@@H]1CCC(=O)N1)C(=O)O [ZEP3Na, pGlu-Asn-Trp-Lys(Octanoyl)-OH.nNa] ([pGlu]NWK(Octanoyl)-OH)
Scaling: period of reduction ([1]; 1% cream topical, 50 mg/kg, scaling score of back skin): from days 14 to 24 | Right ear thickness, significant difference in comparison to control ([1]; days 18, 20 and 22): −18.4 to −22.7% | Erythema scoring: days with a significant difference ([1]; vs control group): day 24 | total score: days with significant difference ([1]; vs control group): days 14, 18, 20 and 22 | tolerability ([2]; 50 mg/kg topical to atopic dermatitis induced mice): well tolerated | Bodyweights in comparison to the excipient ([2]; day 8 to day 28): behaved normally | time to relief reported by the subject (CMC type arthritis): within one day | time to resolution of the condition (CMC type arthritis): 3 to 4 days | solubility (physchem): 50 mg/mL (≈ 73.1 mM) | TNF alpha levels / production in LPS treated human keratinocytes (in words) (TNF alpha; compared with cells stimulated with LPS alone): dose dependent inhibition | TNFα (TNF alpha; peptide 0.02 mg/ml, LPS 20 μg/ml, ZEP3 in 0.025% DMSO): 9.2 pg/mL | Fold Change (TNF alpha; [3]): 3.3 | % Inhibition (TNF alpha; [3]): 26% | TNFα (TNF alpha; peptide 0.2 mg/ml, LPS 20 μg/ml, ZEP3 in 0.05% DMSO): 6.7 pg/mL | Fold Change (TNF alpha; [4]): 2.4 | % Inhibition (TNF alpha; [4]): 46% | TNFα (TNF alpha; peptide 0.2 mg/ml, LPS 30 μg/ml, ZEP3 in 0.10% DMSO): 13.1 pg/mL | Fold Change (TNF alpha; [5]): 4.7 | % Inhibition (TNF alpha; [5]): 38% | TNFα (TNF alpha; peptide 0.4 mg/ml, LPS 20 μg/ml, ZEP3 in 0.10% DMSO): 5.9 pg/mL | Fold Change (TNF alpha; [6]): 2.1 | % Inhibition (TNF alpha; [6]): 52%

C[C@@H](O)[C@H](NC(=O)[C@H](Cc1c[nH]c2ccccc12)NC(=O)[C@H](CC(N)=O)NC(=O)[C@@H]1CCC(=O)N1)C(=O)O [ZEP4 sodium salt, pGlu-Asn-Trp-Thr-OH.nNa] (HELM PEPTIDE1{[Glp].N.W.T}$$$$V2.0)
solubility (physchem): 50 mg/mL
